Test results from patent US6884808B2, “Heterocycle-containing carboxylic acid derivative and drug containing the same” (Eisai Co. Ltd., priority 1995, dated 2005).

How the values were obtained:
[1] = target: T1, Retinoic acid receptor: RAR (Homo sapiens, UniProt P10276); assay: Receptor binding assay by using human promyelocytic leukemia cells HL60 (nucleus-extracted fraction, 3H-all-trans retinoic acid); details: 50% inhibition concentration of 3H-all-trans retinoic acid binding, 4° C. for 16 hours
T1 construct: using a fraction extracted from the nucleus of HL60; endogenous in cells; host or cells: HL60 cells, nucleus-extracted fraction (0.4 M KCl extract, 100,000 x g supernatant)
T1 sequence (P10276 1-462): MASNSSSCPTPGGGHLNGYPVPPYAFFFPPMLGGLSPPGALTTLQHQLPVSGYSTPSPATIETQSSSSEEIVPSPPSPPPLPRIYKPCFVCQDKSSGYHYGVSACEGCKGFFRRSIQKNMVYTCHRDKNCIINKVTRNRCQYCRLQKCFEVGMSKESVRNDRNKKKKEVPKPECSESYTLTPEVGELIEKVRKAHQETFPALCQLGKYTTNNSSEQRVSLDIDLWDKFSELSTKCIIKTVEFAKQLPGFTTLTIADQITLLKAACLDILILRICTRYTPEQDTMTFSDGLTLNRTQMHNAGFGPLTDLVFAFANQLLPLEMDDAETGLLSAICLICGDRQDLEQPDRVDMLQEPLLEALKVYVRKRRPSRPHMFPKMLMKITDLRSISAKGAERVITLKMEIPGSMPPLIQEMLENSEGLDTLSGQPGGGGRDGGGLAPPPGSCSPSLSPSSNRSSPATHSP
Procedure: Receptor binding assay by using human promyelocytic leukemia cells HL60
The nucleus-extracted fraction was prepared as described below.
In 15 ml of Solution A [5 mM sodium phosphate (pH 7.4), 10 mM monothioglycerol, 10% v/v glycerol, 1 mM phenylmethyl sulfonyl fluoride (PMSF), 10 μg/ml of aprotinin and 25 μg/ml of leupeptin], HL60 cells (5×10^8) were suspended. The resulting suspension was homogenized, followed by centrifugal separation to remove the supernatant. The precipitate so obtained was suspended in 15 ml of Solution B [10 mM tris-HCl (Tris-HCl) (pH 8.5), 10 mM monothioglycerol, 10% (v/v) glycerol, 1 mM PMSF, 10 μg/ml aprotinin, 25 μg/ml leupeptin and 0.4 M KC1]. After being allowed to stand at 4° C. for one hour, the resulting suspension was subjected to ultracentrifugation at 100,000 xg and 4° C. for one hour.
Receptor binding assay was carried out as follows:
The resulting mixture was allowed to stand at 4° C. for 16 hours. […] The count of the supernatant was determined by a scintillation counter.

HL60 cells = assay: Differentiation and induction effects on HL60 cells (CD11b positive cells, flow cytometry); assay type: cell-based; details: Homo sapiens, HL-60, 120 h; concentration at which the existing ratio of CD11b positive cells becomes 33%; cultivation for 5 days; read-out: Differentiation and induction effects of HL60 cells ED1/3
Description: Differentiation and Induction Effects on HL60 Cells
It is known that human-derived promyelocytic leukemia cell strains HL60 differentiate into the corresponding granulocytic cells in the presence of all-trans retinoic acid [Breitman, T. Selonick., S. and Colling, S. Proc. Natl. Acad. Sci., 77, 2936(1980)]. In general, cells after differentiation have come to express specific differentiated antigens on their surface. When the HL60 cells are differentiated into granulocytic cells, CD11b which is a differential antigen between granulocytes and monocytes is expressed on the surface of the cells [Fontana, J A., Reppuci, A. Durham, J P. and Mirand, D. Cancer Res. 46, 2469-2473(1986)]. Effects of the invention compound on the differentiation and induction into granulocyte cells were studied by making use of the above-described phenomenon.
HL60 cells were cultured and kept in RPMI 1640 (a medium formulated by Rosewell Park Memorial Institute) to which 10% bovine fetal serum, 1 mM sodium […], 50 μM β-mercaptoethanol, 100 IU/ml of penicillin and 100 μg/ml of streptomycin had been added.
On each well of a 24-well plate, a 1 ml portion of the suspension containing HL60 in an amount of 1×10^5 […] was seeded. The invention compound was then added thereto at varied concentrations, followed by cultivation for 5 days in a 5% CO2-air incubator. After cultivation, the cells of each well were collected in a test tube, to which an FITC-labeled monoclonal antibody against Cd11b, that is, a granulocyte-monocyte specific antigen was added. The cells were then immobilized with 0.2% paraformaldehyde. The existing ratio of CD11b positive cells in the vial HL60 cell group present in each well was determined using flow cytometry [Miller, L J., Schwarting, R. and Springer, T A. J. Immunol. 137, 2891-2900(1986)]. The existing ratios of CD11b positive cells-of-compounds which will be described below were increased according to the concentration. The concentration at which the existing ratio of the positive cells becomes 33% is defined as ED1/3.

| SMILES | melting point | IC50 [1] | EC (33% CD11b positive cells) (HL60 cells) |
| --- | --- | --- | --- |
| CCn1cc(-c2ccc(C(=O)O)cc2)cc1-c1cnc(C(C)C)c(C(C)C)n1 [Example 36, 4-[4-[2-[2-(5,6-Diisopropylpyrazinyl)]-1-ethylpyrrolyl]]benzoic acid] | 272 to 274 °C | – | – |
| CN1CCCC(C)(C)c2cc(-c3ccc(-c4ccc(C(=O)O)cc4)[nH]3)ccc21 [Compound of Ex. 85, 4-{2-{5-[7-(1,5,5-Trimethyl-2,3,4,5-tetrahydro-1H-benzazepinyl)]pyrrolyl}}benzoic acid] | – | < 0.5 nM | 0.001 µM |
| Cc1oc(-c2cnc3c(n2)C(C)(C)CCC3(C)C)cc1-c1ccc(C(=O)O)cc1 [Example 40, 4-[3-[5-[2-(5,6,7,8-Tetrahydro-5,5,8,8-tetramethylquinoxalyl)]-2-methylfuryl]]benzoic acid] | 270 to 272 °C | – | – |
| CC(C)c1ncc(-c2ccc(-c3ccc(C(=O)O)cc3)n2C(C)C)nc1C(C)C [Example 51, 4-[2-[5-[2-(5,6-Diisopropylpyrazinyl)]-1-isopropylpyrrolyl]]benzoic acid] | 215 °C (dec.) | – | – |
| Cn1cc(-c2ccc(C(=O)O)cc2)cc1-c1cnc2c(n1)C(C)(C)CC2(C)C [Example 35, 4-[4-[2-[2-(5,5,7,7-Tetramethylcyclopenta[b]pyrazinyl)]-1-methylpyrrolyl]]benzoic acid] | 250 °C (dec.) | – | – |
| Cc1sc(-c2cnc3c(n2)C(C)(C)CCC3(C)C)cc1-c1ccc(C(=O)O)cc1 [Example 32, 4-[3-[5-[2-(5,6,7,8-Tetrahydro-5,5,8,8-tetramethylquinoxalyl)]-2-methylthienyl]]benzo acid] | 215 to 217 °C | – | – |
| CC(C)c1ncc(-c2ccc(-c3ccc(C(=O)O)cc3)o2)nc1C(C)C [Example 48, 4-[2-[5-[2-(5,6-Diisopropropylpyrazinyl)]furyl]]benzoic acid] | 260 to 262 °C | – | – |
| CC1(C)CCC(C)(C)c2nc(C(=O)Nc3ccc(C(=O)O)cc3)cnc21 [Example 88, 4-(5,6,7,8-Tetrahydro-5,5,8,8-tetramethyl-2-quinoxalinecarbamoyl)benzoic acid] | 257 to 259 °C | – | – |
| CC1(C)CCC(C)(C)c2cc(-c3ccc(-c4ccc(C(=O)O)cc4)[nH]3)ccc21 [1), reference compound] | – | 0.5 nM | 0.00094 µM |
| Cc1c(-c2ccc(C(=O)O)cc2)cc(-c2cnc3c(n2)C(C)(C)CCC3(C)C)n1C [Example 37] | 265 to 267 °C | – | – |
| CC(C)c1nnc(C(=O)Nc2ccc(C(=O)O)cc2)nc1C(C)C [Example 91, 4-(5,6-Diisopropyl-3-[1,2,4]triazinecarbamoyl)benzoic acid] | 182 to 184 °C | – | – |
| CC(C)c1ncc(-c2cc(-c3ccc(C(=O)O)cc3)c[nH]2)nc1C(C)C [Example 27, 4-[4-[2-[2-(5,6-Diisopropylpyrazinyl)]pyrrolyl]]benzoic acid] | 245 °C (dec.) | – | – |
| CC1(C)CC(C)(C)c2nc(-c3cc(-c4ccc(C(=O)O)cc4)cs3)cnc21 [Example 31, 4-[4-[2-[2-(5,5,7,7-Tetramethylcyclopenta[b]pyrazinyl)]thienyl]]benzoic acid] | 222 °C (dec.) | – | – |
| CC(C)c1ncc(-c2ccc(-c3ccc(C(=O)O)cc3)s2)nc1C(C)C [Example 46, 4-[2-[5-[2-(5,6,-Diisopropylpyrazinyl)]thienyl]]benzoic acid] | 270 to 272 °C | – | – |
| CC1(C)CC(C)(C)c2nc(-c3cc(-c4ccc(C(=O)O)cc4)co3)cnc21 [Example 39, 4-[4-[2-[2-(5,5,7,7-Tetramethylcyclopenta[b]pyrazinyl)]-furyl]]benzoic acid] | 250 to 252 °C | – | – |
| CC(C)c1ncc(-c2cc(-c3ccc(C(=O)O)cc3)cs2)nc1C(C)C [Example 30, 4-[4-[2-[2-(5,6-Diisopropylpyrazinyl)]thienyl]]benzoic acid] | 226 to 229 °C | – | – |
| CC1(C)CC(C)(C)c2nc(-c3ccc(-c4ccc(C(=O)O)cc4)o3)cnc21 [Example 49, 4-[2-[5-[2-(5,5,7,7-Tetramethylcyclopenta[b]pyrazinyl)]-furyl]]benzoic acid] | 238 to 240 °C | – | – |
| Cn1c(-c2ccc(C(=O)O)cc2)ccc1-c1cnc2c(n1)C(C)(C)CC2(C)C [Example 50, 4-[2-[5-[2-(5,5,7,7-Tetramethylcyclopenta[b]pyrazinyl)]-1-methylpyrrolyl]]benzoic acid] | 218 to 220 °C | – | – |
| O=C(O)c1ccc(NC(=O)c2cnc(C3CCCC3)c(C3CCCC3)n2)cc1 [Example 90, 4-(2,3-Dicyclopentyl-2-pyrazinecarbamoyl)benzoic acid] | 248 to 250 °C | – | – |
| CC1(C)CC(C)(C)c2nc(-c3cc(-c4ccc(C(=O)O)cc4)c[nH]3)cnc21 [Example 28, 4-[4-[2-[2-(5,5,7,7-Tetramethylcyclopenta[b]pyrazinyl)]pyrrolyl]]benzoic acid] | 145 to 147 °C | – | – |
| CC(C)n1cc(-c2ccc(C(=O)O)cc2)cc1-c1cnc2c(n1)C(C)(C)CCC2(C)C [Example 33, 4-[4-[2-[2-(5,6,7,8-tetrahydro-5,5,8,8-tetramethylquinoxalyl)]-1-isopropylpyrrolyl]]benzoic acid] | 225 to 227 °C | – | – |
| CC1=C(/C=C/C(C)=C/C=C/C(C)=C/C(=O)O)C(C)(C)CCC1 [All-trans-retinoic acid, reference compound] | – | – | 0.0018 µM |
| CC1(C)CCC(C)(C)c2nc(-c3ccc(-c4ccc(C(=O)O)cn4)[nH]3)cnc21 [Example 45, 6-[2-[5-[2-(5,6,7,8-Tetrahydro-5,5,8,8-tetramethylquinoxalyl)]pyrrolyl]]nicotinic acid] | 278 °C (dec.) | – | – |
| Cc1[nH]c(-c2cnc3c(n2)C(C)(C)CCC3(C)C)cc1-c1ccc(C(=O)O)cc1 [Example 29, 4-[3-[5-[2-(5,6,7,8-Tetrahydro-5,5,8,8-tetramethylquinoxalyl)]-2-methylpyrrolyl]]benzoic acid] | 248 to 250 °C | – | – |
| CC1(C)CC(C)(C)c2nc(C(=O)Nc3ccc(C(=O)O)cc3)cnc21 [Example 89, 4-(5,5,7,7-Tetramethyl-2-cyclopenta[b]pyrazinecarbamoyl)benzoic acid] | 236 to 238 °C | – | – |
| CC1(C)CC(C)(C)c2nc(-c3ccc(-c4ccc(C(=O)O)cc4)s3)cnc21 [Example 47, 4-[2-[5-[2-(5,5,7,7-Tetramethylcyclopenta[b]pyrazinyl)]-thienyl]]benzoic acid] | 275 °C (dec.) | – | – |
| CC1(C)CCC(C)(C)c2nc(-c3cc(-c4ccc(C(=O)O)cc4)cn3Cc3cccnc3)cnc21 [Example 41, 4-[4-[2-[2-(5,6,7,8-tetrahydro-5,5,8,8-tetramethylquinoxalyl)]-1-(3-pyridylmethyl)pyrrolyl]]benzoic acid] | 263 to 266 °C | – | – |
| CC(C)c1ncc(-c2cc(-c3ccc(C(=O)O)cc3)co2)nc1C(C)C [Example 38, 4-[4-[2-[2-(5,6-Diisopropylpyrazinyl)]furyl]]benzoic acid] | 215 to 218 °C | – | – |
